Assay results from patent US12161715B2, “EGFR targeted therapy” (priority 2011, dated 2024).

Assay: Case 3: conventional drugs approved for neuropathic pain
Type: in vivo, human
Conditions: failed back surgery syndrome; pregabalin follow-up 19 weeks

| SMILES | NP response to conventional drug, Case 3 |
| --- | --- |
| NCC1(CC(=O)O)CCCCC1 [gabapentin] | unsuccessfully treated |
| CC(C)C[C@H](CN)CC(=O)O [pregabalin] | responded |
